The supplement of paper PMC8960247
Counter-ions that a name gives are not always drawn. ± gives the standard error.

Assays:
621-102 (TSC2-deficient) [1] = assay: relative viability vs DMSO (fraction); higher = less cytotoxic; details: serum: 0.1% FBS, 72 h
UMB1949 (TSC2-deficient) = assay: as above; details: serum: 0.1% FBS, 72 h;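 note: renal angiomyolipoma cell lines screened in 384-well plates, viability normalized per plate to DMSO-treated cells, each plate carrying 50 nM rapamycin and 1 µM staurosporine controls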
621-102 (TSC2-deficient) [2] = assay: relative viability vs DMSO; higher = less cytotoxic; details: serum: 10% FBS, 72 h
621-103 (TSC2-rescued) = assay: as above; details: serum: 10% FBS, 72 h

Row | Structure (SMILES) | relative viability (621-102 (TSC2-deficient) [1]; 0.0128 nM) | relative viability (621-102 (TSC2-deficient) [1]; 0.064 nM) | relative viability (621-102 (TSC2-deficient) [1]; 0.32 nM) | relative viability (621-102 (TSC2-deficient) [1]; 1.6 nM) | relative viability (621-102 (TSC2-deficient) [1]; 8 nM) | relative viability (621-102 (TSC2-deficient) [1]; 40 nM) | relative viability (621-102 (TSC2-deficient) [1]; 200 nM) | relative viability (621-102 (TSC2-deficient) [1]; 1000 nM) | relative viability (621-102 (TSC2-deficient) [1]; 5000 nM) | relative viability (UMB1949 (TSC2-deficient); 0.0128 nM) | relative viability (UMB1949 (TSC2-deficient); 0.064 nM) | relative viability (UMB1949 (TSC2-deficient); 0.32 nM) | relative viability (UMB1949 (TSC2-deficient); 1.6 nM) | relative viability (UMB1949 (TSC2-deficient); 8 nM) | relative viability (UMB1949 (TSC2-deficient); 40 nM) | relative viability (UMB1949 (TSC2-deficient); 200 nM) | relative viability (UMB1949 (TSC2-deficient); 1000 nM) | relative viability (UMB1949 (TSC2-deficient); 5000 nM) | relative viability (621-102 (TSC2-deficient) [2]; 0.0001 µM) [%] | relative viability (621-102 (TSC2-deficient) [2]; 0.001 µM) [%] | relative viability (621-102 (TSC2-deficient) [2]; 0.01 µM) [%] | relative viability (621-102 (TSC2-deficient) [2]; 0.1 µM) [%] | relative viability (621-102 (TSC2-deficient) [2]; 1 µM) [%] | relative viability (621-102 (TSC2-deficient) [2]; 10 µM) [%] | relative viability (621-103 (TSC2-rescued); 0.0001 µM) [%] | relative viability (621-103 (TSC2-rescued); 0.001 µM) [%] | relative viability (621-103 (TSC2-rescued); 0.01 µM) [%] | relative viability (621-103 (TSC2-rescued); 0.1 µM) [%] | relative viability (621-103 (TSC2-rescued); 1 µM) [%] | relative viability (621-103 (TSC2-rescued); 10 µM) [%]
1 | CC(C)[C@H](C(=O)Nc1ccc(C(=O)NO)cc1)c1ccccc1 [AR-42] | 0.993 | 1.12 | 1.01 | 1.02 | 0.76 | 0.563 | 0.416 | 0.389 | 0.0646 | 1.03 | 1.11 | 1.12 | 1.07 | 0.89 | 0.548 | 0.0124 | 0.00772 | 0.00643 |  |  |  |  |  |  |  |  |  |  |  | 
2 | CC(C)c1cc(C(C)C)c(CC(=O)NS(=O)(=O)Oc2c(C(C)C)cccc2C(C)C)c(C(C)C)c1 [Avasimibe] | 1.07 | 0.675 | 1.2 | 1.1 | 1.08 | 1.53 | 1.4 | 0.32 | 0.0125 | 1.13 | 1.12 | 1.19 | 1.06 | 1.08 | 1.1 | 1.02 | 0.00835 | 0.00834 |  |  |  |  |  |  |  |  |  |  |  | 
3 | C#Cc1cccc(Nc2ncnc3cc(OC)c(OCCCCCCC(=O)NO)cc23)c1 [CUDC-101] | 0.714 | 0.529 | 0.505 | 0.386 | 0.343 | 0.123 | 0.127 | 0.005 | 0.0015 |  |  |  |  |  |  |  |  |  | 110.7 ± 0.61 | 108 ± 6.5 | 104 ± 1.9 | 95.14 ± 0.26 | 85.2 ± 2 | 30.6 ± 1.5 | 94.9 ± 1.2 | 99.73 ± 0.74 | 97.8 ± 1.4 | 93.79 ± 0.69 | 83.8 ± 2.3 | 2.28 ± 0.2
4 | CCC[C@H](Nc1nc(-c2ccc(NC(=O)NCC)c(OC)c2)ncc1C)c1cccnc1 [CYT997] |  |  |  |  |  |  |  |  |  | 0.622 | 0.0694 | 0.00719 | 0.0079 | 0.00595 | 0.00742 | 0.00575 | 0.00558 | 0.00511 | 87.8 ± 1.3 | 95.67 ± 0.75 | 48.6 ± 1.6 | 39.1 ± 0.56 | 36.2 ± 0.95 | 41 ± 1.1 | 82.2 ± 1.5 | 78.28 ± 0.4 | 40.2 ± 0.82 | 26.3 ± 2.2 | 24.3 ± 0.3 | 25.4 ± 2
5 | CC[C@@]1(O)C(=O)OCc2c1cc1n(c2=O)Cc2cc3ccccc3nc2-1 [Camptothecin] | 0.843 | 0.818 | 0.747 | 0.485 | 0.166 | 0.178 | 0.00844 | 0.00416 | 0.00456 | 0.995 | 0.913 | 0.83 | 0.129 | 0.0117 | 0.00478 | 0.00188 | 0.00182 | 0.00462 |  |  |  |  |  |  |  |  |  |  |  | 
6 | Nc1ccn([C@@H]2O[C@H](CO)[C@@H](O)[C@@H]2O)c(=O)n1 [Cytarabine] | 1.24 | 1.08 | 1.14 | 0.885 | 1.01 | 0.505 | 0.244 | 0.096 | 0.0178 | 0.98 | 0.941 | 0.967 | 0.962 | 0.974 | 0.929 | 0.176 | 0.00531 | 0.0022 |  |  |  |  |  |  |  |  |  |  |  | 
7 | COc1cccc2c1C(=O)c1c(O)c3c(c(O)c1C2=O)C[C@@](O)(C(=O)CO)C[C@@H]3O[C@H]1C[C@H](N)[C@H](O)[C@H](C)O1 [Doxorubicin (adriamycin)] | 0.343 | 0.2 | 0.0923 | 0.107 | 0.128 | 0.0761 | 0.0129 | 0.00359 | 0.00442 |  |  |  |  |  |  |  |  |  |  |  |  |  |  |  |  |  |  |  |  | 
8 | CC1=NN(c2ccc(C)c(C)c2)C(=O)/C1=N\Nc1cccc(-c2cccc(C(=O)O)c2)c1O [Eltrombopag] | 1.19 | 0.961 | 0.994 | 0.991 | 0.875 | 0.926 | 1.43 | 0.074 | 0.0453 | 1.08 | 0.963 | 1 | 1.05 | 1.09 | 1.03 | 0.473 | 0.00551 | 0.00668 |  |  |  |  |  |  |  |  |  |  |  | 
9 | CO[C@H]1C[C@@H]2CC[C@@H](C)[C@@](O)(O2)C(=O)C(=O)N2CCCC[C@H]2C(=O)O[C@H]([C@H](C)C[C@@H]2CC[C@@H](OCCO)[C@H](OC)C2)CC(=O)[C@H](C)/C=C(\C)[C@@H](O)[C@@H](OC)C(=O)[C@H](C)C[C@H](C)/C=C/C=C/C=C/1C [Everolimus(RAD001)] | 0.753 | 0.734 | 0.706 | 0.696 | 0.681 | 0.543 | 0.391 | 0.325 | 0.276 | 1 | 0.899 | 0.985 | 0.9 | 0.936 | 0.847 | 0.781 | 0.401 | 0.461 |  |  |  |  |  |  |  |  |  |  |  | 
10 | COC(=O)Nc1nc2cc(Sc3ccccc3)ccc2[nH]1 [Fenbendazole] | 1.37 | 1.35 | 1.68 | 1.39 | 0.898 | 0.314 | 0.0634 | 0.0446 | 0.0203 | 1.05 | 0.807 | 1.02 | 0.969 | 0.983 | 0.605 | 0.00543 | 0.00256 | 0.00375 |  |  |  |  |  |  |  |  |  |  |  | 
11 | COC1=C2C[C@@H](C)C[C@H](OC)[C@H](O)[C@@H](C)/C=C(\C)[C@H](OC(N)=O)[C@@H](OC)/C=C\C=C(/C)C(=O)NC(=CC1=O)C2=O [Geldanamycin] | 0.476 | 0.259 | 0.399 | 0.172 | 0.306 | 0.27 | 0.12 | 0.0204 | 0.0125 |  |  |  |  |  |  |  |  |  | 90.7 ± 2.4 | 91.7 ± 1.6 | 62.3 ± 3 | 39.82 ± 0.13 | 28.8 ± 1.5 | 8.32 ± 0.19 | 98.8 ± 6.2 | 77.8 ± 1.1 | 33.3 ± 7.4 | 10.09 ± 0.062 | 3.46 ± 0.37 | 3.05 ± 0.2
12 | Cc1ccc([N+](=O)[O-])cc1S(=O)(=O)N(C)/N=C/c1cnc2ccc(Br)cn12 [PIK-75 Hydrochloride] |  |  |  |  |  |  |  |  |  | 0.512 | 0.42 | 0.371 | 0.417 | 0.126 | 0.00679 | 0.00475 | 0.00356 | 0.00221 |  |  |  |  |  |  |  |  |  |  |  | 
